Earlier results on one molecule are cited in US20050004106A1, “Combinations of GABA modulators and anticonvulsants, and atypical antipsychotics” (Pfizer Inc, priority 2003, published 2005).

For orientation: half-life means the time needed for the level to fall by half in the phase considered.

Structures are written as SMILES.

The conditions of series [1]: in vivo.

Take `Cl.O.O=C1Cc2cc(CCN3CCN(c4nsc5ccccc45)CC3)c(Cl)cc2N1` [ziprasidone, 5-[2-[4-(1,2-benzisothiazol-3-yl)piperazin-1-yl]ethyl]-6-chloroindolin-2-one hydrochloride hydrate]: the protein binding entry is “extensive”. Besides, the half-life in series [1] is 6 to 7 h.
